Among the data in ChEMBL document CHEMBL5104180, “Design, Synthesis, and Evaluation of New Sugar-Substituted Imidazole Derivatives as Selective c-MYC Transcription Repressors Targeting the Promoter G-Quadruplex” (J Med Chem, 2022) are Kd and ΔTm values, retold here.

Assay [1] can be described thus: Binding affinity to Hairpin DNA (unknown origin) assessed as binding constant by SPR analysis.
Assay [2] concerns the target Quadruplex DNA. Put plainly: Binding affinity to c-MYC G4- quadruplex DNA Pu22 (unknown origin) assessed as binding constant by SPR analysis. The class given is nucleic-acid assay. (In general: Surface plasmon resonance follows binding to a sensor surface in real time, without labels.)
Assay [3] in a line: Binding affinity to G-rich KRAS DNA (unknown origin) assessed as binding constant by SPR analysis.
Assay [4] can be described thus: Binding affinity to human G-rich Htg22 DNA assessed as binding constant by SPR analysis.
A short description of assay [5]: Binding affinity to G-rich HRAS DNA (unknown origin) assessed as binding constant by SPR analysis.
For the next assay, the target named is RNA. Nature of the assay: Binding affinity to NRAS RNA mutant (unknown origin) assessed as binding constant by SPR analysis.
Assay [6] concerns Quadruplex DNA. Put plainly: Stabilization of c-MYC G4 quadruplex DNA Pu22 (unknown origin) assessed as change in melting temperature at 2 uM by CD spectroscopy. The class given is nucleic-acid assay.
Assay [7] in a line: Binding affinity to G-rich NRAS RNA (unknown origin) assessed as binding constant by SPR analysis.
The target in assay [8] is Quadruplex DNA. Put plainly: Binding affinity to c-MYC G4 quadruplex DNA Pu22 (unknown origin) assessed as binding constant by SPR analysis. The assay is classed as nucleic-acid assay.

The term Kd denotes a measure of binding affinity in units of concentration. By ΔTm is commonly meant the shift of the melting midpoint relative to a reference.

Each structure is given as a SMILES string. Some results are limits rather than exact numbers.

Turning to `CCn1c2ccccc2c2cc(-c3nc(-c4ccc(N5CCN(C)CC5)cc4)c(-c4ccc(N5CCN(Cc6cn(CCOCCO)nn6)CC5)cc4)[nH]3)ccc21`, the Kd was > 20 µM in assay [1]; 1.2 µM at Quadruplex DNA [2]; 5.6 µM in assay [3]; > 20 µM in assay [4]; 2.8 µM in assay [5]; > 20 µM at RNA. The values for the equilibrium dissociation constant (Kd) (in [7]; at Quadruplex DNA [8]) were 14.5 µM and > 20 µM, respectively. Moreover, the ΔTm in the assay on Quadruplex DNA [6] is 18.7 °C.
`CCn1c2ccccc2c2cc(-c3nc(-c4ccc(N5CCN(C)CC5)cc4)c(-c4ccc(N5CCN(C)CC5)cc4)n3-c3ccc(O[C@@H]4O[C@H](CO)[C@@H](O)[C@H](O)[C@H]4O)cc3)ccc21`: the Kd in assay [1] was > 20 µM; on Quadruplex DNA [2], 1.8 µM; in [3], 12.5 µM; in assay [4], > 20 µM; in assay [5] it was 6.8 µM; on RNA, > 20 µM. For the same compound, the Kd was 16.9 µM in assay [7] and > 20 µM on Quadruplex DNA [8]. In addition, the ΔTm in the assay on Quadruplex DNA [6] is 15.5 °C.
On to `CCn1c2ccccc2c2cc(-c3nc(-c4ccc(N5CCN(C)CC5)cc4)c(-c4ccc(N5CCN(C)CC5)cc4)n3-c3ccc(OCCOCCOC(C)=O)cc3)ccc21`, for which the Kd in [1] is > 20 µM; at Quadruplex DNA [2] it was 4 µM; in assay [3] it was 10.2 µM; in assay [4], > 20 µM; in [5], 19.1 µM; at RNA, > 20 µM. Besides, the Kd (in [7]; at Quadruplex DNA [8]) was > 20 µM throughout. The ΔTm with Quadruplex DNA [6] came out at 21.2 °C.
For `CCn1c2ccccc2c2cc(-c3nc(-c4ccc(N5CCN(C)CC5)cc4)c(-c4ccc(N5CCN(C)CC5)cc4)n3-c3ccc(O)cc3)ccc21`, in the assay on Quadruplex DNA [6], the shift in melting temperature (ΔTm) was 14.5 °C.
On the same count and under the same terms, with `CCn1c2ccccc2c2cc(-c3nc(-c4ccc(N5CCN(C)CC5)cc4)c(-c4ccc(N5CCN(C)CC5)cc4)n3-c3ccc(OCCCO)cc3)ccc21` the figure was 9.2 °C.
On the same count and under the same terms, with `CCn1c2ccccc2c2cc(-c3nc(-c4ccc(N5CCN(C)CC5)cc4)c(-c4ccc(N5CCN(C)CC5)cc4)n3-c3ccc(OCCCOC(C)=O)cc3)ccc21` the figure was 6.8 °C; with `CCn1c2ccccc2c2cc(-c3nc(-c4ccc(N5CCN(C)CC5)cc4)c(-c4ccc(N5CCN(C)CC5)cc4)n3-c3ccc(OCc4ccccc4)cc3)ccc21`, 7.6 °C; with `CCn1c2ccccc2c2cc(-c3nc(-c4ccc(N5CCN(C)CC5)cc4)c(-c4ccc(N5CCN(C)CC5)cc4)n3CCOC(C)=O)ccc21`, 11.1 °C.
For the compound `CCn1c2ccccc2c2cc(-c3nc(-c4ccc(N5CCN(C)CC5)cc4)c(-c4ccc(N5CCN(C)CC5)cc4)n3CCOCCO)ccc21`, in the assay on Quadruplex DNA [6], the ΔTm came to 11.6 °C.
On the same count and under the same terms, to `CCn1c2ccccc2c2cc(-c3nc(-c4ccc(N5CCN(C)CC5)cc4)c(-c4ccc(N5CCN(C)CC5)cc4)n3CCOCCOC(C)=O)ccc21` belongs 10.4 °C.
Consider `COc1ccc(-n2c(-c3ccc4c(c3)c3ccccc3n4Cc3cn(CCOCCO)nn3)nc(-c3ccc(N4CCN(C)CC4)cc3)c2-c2ccc(N3CCN(C)CC3)cc2)cc1`, for which the ΔTm in the assay on Quadruplex DNA [6] is 13.4 °C.
The same measure, in the same setting: with `COc1ccc(-n2c(-c3ccc4c(c3)c3ccccc3n4Cc3cn([C@@H]4O[C@H](COC(C)=O)[C@@H](OC(C)=O)[C@H](OC(C)=O)[C@H]4OC(C)=O)nn3)nc(-c3ccc(N4CCN(C)CC4)cc3)c2-c2ccc(N3CCN(C)CC3)cc2)cc1` the figure was 13.4 °C.
Consider `CCn1c2ccccc2c2cc(-c3nc(-c4ccc(N5CCN(C)CC5)cc4)c(-c4ccc(N5CCN(C)CC5)cc4)n3-c3ccc(OCCOCCO[C@@H]4O[C@H](CO)[C@@H](O)[C@H](O)[C@H]4N)cc3)ccc21` (single isomer, unassigned), for which the Kd is > 20 µM in assay [1]; 0.8 µM on Quadruplex DNA [2]; 2.3 µM in assay [3]; > 20 µM in assay [4]; 2.3 µM in assay [5]; > 20 µM at RNA. Also, the Kd in assay [7] was 5.8 µM; on Quadruplex DNA [8], > 20 µM. Moreover, the ΔTm in the assay on Quadruplex DNA [6] is 21.7 °C.
For the compound `CCn1c2ccccc2c2cc(-c3nc(-c4ccc(N5CCN(C)CC5)cc4)c(-c4ccc(N5CCN(C)CC5)cc4)n3-c3ccc(OCCCOC4(C)O[C@H]5O[C@H](CO)[C@@H](O)[C@H](O)[C@H]5O4)cc3)ccc21` (single isomer, unassigned), the ΔTm with Quadruplex DNA [6] was determined as 14.6 °C.
Turning to `CCn1c2ccccc2c2cc(-c3nc(-c4ccc(N5CCN(C)CC5)cc4)c(-c4ccc(N5CCN(C)CC5)cc4)n3-c3ccc(OCCCO[C@@H]4O[C@H](COC(C)=O)[C@@H](OC(C)=O)[C@H](OC(C)=O)[C@H]4OC(C)=O)cc3)ccc21` (single isomer, unassigned), the ΔTm in the assay with Quadruplex DNA [6] worked out at 13.7 °C.
Still for that read-out and setting: to `CCn1c2ccccc2c2cc(-c3nc(-c4ccc(N5CCN(C)CC5)cc4)c(-c4ccc(N5CCN(C)CC5)cc4)n3-c3ccc(OCCCO[C@@H]4O[C@H](COC(C)=O)[C@H](OC(C)=O)[C@H](OC(C)=O)[C@H]4OC(C)=O)cc3)ccc21` (single isomer, unassigned) belongs 10.9 °C; to `CCn1c2ccccc2c2cc(-c3nc(-c4ccc(N5CCN(C)CC5)cc4)c(-c4ccc(N5CCN(C)CC5)cc4)n3-c3ccc(OCCOCCO[C@@H]4O[C@H](COC(C)=O)[C@@H](OC(C)=O)[C@H](OC(C)=O)[C@H]4NC(=O)C(F)(F)F)cc3)ccc21` (single isomer, unassigned), 14 °C.
Still for that read-out and setting: to `CCn1c2ccccc2c2cc(-c3nc(-c4ccc(N5CCN(C)CC5)cc4)c(-c4ccc(N5CCN(C)CC5)cc4)n3-c3ccc(OCCOCCO[C@@H]4O[C@H](COC(C)=O)[C@@H](OC(C)=O)[C@H](OC(C)=O)[C@H]4OC(C)=O)cc3)ccc21` (single isomer, unassigned) belongs 14.2 °C; to `CCn1c2ccccc2c2cc(-c3nc(-c4ccc(N5CCN(C)CC5)cc4)c(-c4ccc(N5CCN(C)CC5)cc4)n3-c3ccc(OCCOCCO[C@@H]4O[C@H](COC(C)=O)[C@H](OC(C)=O)[C@H](OC(C)=O)[C@H]4OC(C)=O)cc3)ccc21` (single isomer, unassigned), 12.8 °C.
The same measure, in the same setting: with `CCn1c2ccccc2c2cc(-c3nc(-c4ccc(N5CCN(C)CC5)cc4)c(-c4ccc(N5CCN(C)CC5)cc4)n3-c3ccc(O[C@@H]4O[C@H](COC(C)=O)[C@@H](OC(C)=O)[C@H](OC(C)=O)[C@H]4OC(C)=O)cc3)ccc21` (single isomer, unassigned) the figure was 10.7 °C; with `CCn1c2ccccc2c2cc(-c3nc(-c4ccc(N5CCN(C)CC5)cc4)c(-c4ccc(N5CCN(C)CC5)cc4)n3CCOCCO[C@@H]3O[C@H](COC(C)=O)[C@@H](OC(C)=O)[C@H](OC(C)=O)[C@H]3OC(C)=O)ccc21` (single isomer, unassigned), 11.4 °C; with `CCn1c2ccccc2c2cc(-c3nc(-c4ccc(N5CCN(C)CC5)cc4)c(-c4ccc(N5CCN(C)CC5)cc4)n3CCOCCO[C@@H]3O[C@H](COC(C)=O)[C@H](OC(C)=O)[C@H](OC(C)=O)[C@H]3OC(C)=O)ccc21` (single isomer, unassigned), 10.3 °C.
`CCn1c2ccccc2c2cc(-c3nc(-c4ccc(N5CCN(C)CC5)cc4)c(-c4ccc(N5CCN(C)CC5)cc4)n3CCOCCO[C@H]3OC(CO)C(O)[C@@H](O)[C@@H]3O)ccc21` (single isomer, unassigned): the ΔTm with Quadruplex DNA [6] is 14.9 °C.
The same measure, in the same setting: with `CCn1c2ccccc2c2cc(-c3nc(-c4ccc(N5CCN(C)CC5)cc4)c(-c4ccc(N5CCN(C)CC5)cc4)n3CCO[C@@H]3O[C@H](CO)[C@@H](O)[C@H](O)[C@H]3O)ccc21` (single isomer, unassigned) the figure was 14.7 °C; with `CCn1c2ccccc2c2cc(-c3nc(-c4ccc(N5CCN(C)CC5)cc4)c(-c4ccc(N5CCN(C)CC5)cc4)n3CCO[C@@H]3O[C@H](CO)[C@H](O)[C@H](O)[C@H]3O)ccc21` (single isomer, unassigned), 11.3 °C; with `CCn1c2ccccc2c2cc(-c3nc(-c4ccc(N5CCN(C)CC5)cc4)c(-c4ccc(N5CCN(C)CC5)cc4)n3CCO[C@@H]3O[C@H](COC(C)=O)[C@@H](OC(C)=O)[C@H](OC(C)=O)[C@H]3OC(C)=O)ccc21` (single isomer, unassigned), 7.1 °C.
On the same count and under the same terms, with `CCn1c2ccccc2c2cc(-c3nc(-c4ccc(N5CCN(C)CC5)cc4)c(-c4ccc(N5CCN(C)CC5)cc4)n3CCO[C@@H]3O[C@H](COC(C)=O)[C@H](OC(C)=O)[C@H](OC(C)=O)[C@H]3OC(C)=O)ccc21` (single isomer, unassigned) the figure was 9.3 °C; with `CCn1c2ccccc2c2cc(-c3nc(-c4ccc(N5CCN(C)CC5)cc4)c(-c4ccc(N5CCN(Cc6cn([C@@H]7O[C@H](COC(C)=O)[C@@H](OC(C)=O)[C@H](OC(C)=O)[C@H]7OC(C)=O)nn6)CC5)cc4)[nH]3)ccc21` (single isomer, unassigned), 15.4 °C; with `CCn1c2ccccc2c2cc(-c3nc(-c4ccc(N5CCN(C)CC5)cc4)c(-c4ccc(N5CCN(Cc6cn([C@@H]7O[C@H](COC(C)=O)[C@H](OC(C)=O)[C@H](OC(C)=O)[C@H]7OC(C)=O)nn6)CC5)cc4)[nH]3)ccc21` (single isomer, unassigned), 15.1 °C.
Still for that read-out and setting: with `COc1ccc(-n2c(-c3ccc4c(c3)c3ccccc3n4Cc3cn([C@@H]4O[C@H](CO)[C@@H](O)[C@H](O)[C@H]4O)nn3)nc(-c3ccc(N4CCN(C)CC4)cc3)c2-c2ccc(N3CCN(C)CC3)cc2)cc1` (single isomer, unassigned) the figure was 10.3 °C; with `COc1ccc(-n2c(-c3ccc4c(c3)c3ccccc3n4Cc3cn([C@@H]4O[C@H](CO)[C@H](O)[C@H](O)[C@H]4O)nn3)nc(-c3ccc(N4CCN(C)CC4)cc3)c2-c2ccc(N3CCN(C)CC3)cc2)cc1` (single isomer, unassigned), 12.4 °C.
Regarding `COc1ccc(-n2c(-c3ccc4c(c3)c3ccccc3n4Cc3cn([C@@H]4O[C@H](COC(C)=O)[C@H](OC(C)=O)[C@H](OC(C)=O)[C@H]4OC(C)=O)nn3)nc(-c3ccc(N4CCN(C)CC4)cc3)c2-c2ccc(N3CCN(C)CC3)cc2)cc1` (single isomer, unassigned), in the assay with Quadruplex DNA [6], the ΔTm was 13.3 °C.
